Experimental data: patent US11529295B2, “Oral care composition” (Church & Dwight Co., Inc., priority 2019, dated 2022)

Assay: Fluoride Uptake Study, FDA monograph evaluation (FDA Method #40)
Parameters: species or system bovine
Conditions: comparison between formulas, Tables 2 and 3
Experimental: Formulas 1 and 2, according to Example 1 above, are assessed by Fluoride Uptake Study, FDA monograph evaluation (FDA Method #40). A Control Formula, Placebo Formula, and USP Toothpaste Standard Formula are also assessed for comparison.
Sound, upper, central, bovine incisors were selected and cleaned of all adhering soft tissue. A core of enamel 3 mm in diameter was prepared from each tooth by cutting perpendicular to the labial surface with a hollow-core diamond drill bit. This was performed under water to prevent overheating of the specimens. Each specimen was embedded in the end of a plexiglass rod (114″ diameter×2″ long) using methylmethacrylate. […]
Each enamel specimen was then etched by immersion into 0.5 ml of 1M HC104 for 15 seconds. […] A sample of each solution was then buffered with TISAB to a pH of 5.2 (0.25 ml sample, 0.5 ml TISAB and 0.25 ml IN NaOH) and the fluoride content determined by comparison to a similarly prepared standard curve (1 ml std and 1 ml TISAB). For use in depth of etch calculation, the Ca content of the etch solution was determined by taking 50μl and analyzing for Ca by atomic absorption (0.05 ml qs to 5 ml). […]
The treatments were performed using supernatants of the dentifrice slurries. […] One layer of enamel was then removed from each specimen and analyzed for fluoride and calcium as outlined above (i.e., 15 second etch). […]

For O.O.O.O=C([O-])CC(O)(CC(=O)[O-])C(=O)[O-].O=C([O-])CC(O)(CC(=O)[O-])C(=O)[O-].[Zn+2].[Zn+2].[Zn+2] [zinc citrate trihydrate], the “enamel fluoride uptake, comparison in words” value was “will not have a significant negative impact on Enamel Fluoride Uptake”.
